This data set can be described thus: Observation of polymerization (viscosity increase) of oleic acid with/without fumed silica and air. The format is physicochemical. The text has this: We can conclude that it is the addition of fumed silica to the oleic acid formula which is responsible for promoting this polymerization reaction. […] Based on chemical fundamentals we theorize that it is the fumed silica's high surface area that acts as the catalyst to increase the reaction between the oleic acid and oxygen in the air to promote oxidation, resulting in cross-linking, resulting in polymerization, resulting in an increase in viscosity and hardening. Since only some of the oleic acid molecules participate in this polymerization reaction, the rest of the oleic acid in the gel formulation is free to still act as an effective repellent.

Each structure is given as a SMILES string.

Turning to `CCCCCCCC/C=C\CCCCCCCC(=O)O` [Oleic Acid, oleic acid], the Polymerization entry (Exposure to Air: Yes) is “No”. Further, the “increase in viscosity (polymerization)” value (exposed to air, temperatures normally encountered in the environment) is given as “no substantial increase in viscosity”.

The record behind these values is patent publication US20220053777A1, “NON-TOXIC ANT-REPELLING GEL” (priority 2013, published 2022).
